In US12497396B2, “Nitrogen-containing heterocyclic derivatives, method therefor and application therefor as inhibitors of KRAS G12C for the treatment of cancers” (SHANGHAI HANSOH BIOMEDICAL CO., LTD., priority 2019, dated 2025):
pIC50: −log10 of the molar value. Each block holds one compound with its values, some of them ahead of it.

Assays:
[1] = test system: Mia PaCa-2 cells (KRAS G12C mutant cell line); assay: Inhibition of Mia PaCa-2 cell proliferation (CellTiter-Glo, 72 h); assay type: cell-based, human; conditions: Homo sapiens
From the text: (§1) As a preferred embodiment of the present disclosure, the detection method of NCI-H358 cell proliferation inhibitory activity and Mia PaCa-2 cell proliferation inhibitory activity is as follows: through cell culture, adding different concentrations of compound solutions to the cultured cells, continuing the culture for a period of time and measuring the cell proliferation; • further, the method of cell culture is: adjusting the cells to a suitable cell concentration with complete medium and spreading the cell suspension in well plates for culture; preferably, the culture conditions are 37° C., 5% CO2 incubator overnight; preferably, the cell suspension is spread in 96-well plates, 48-well plates, 24-well plates, 12-well plates or 6-well plates, more preferably 96-well plates; preferably, the suitable cell concentration is 1500-4000 cells/well, with 90 μL of cell suspension added to each well; • further, the compound solution is prepared with DMSO and may be further diluted with medium; preferably, the compound solution has a concentration gradient starting from 100 μM at 4-fold dilution, more preferably starting from 30 μM at 4-fold dilution, most preferably starting from 10 μM at 4-fold dilution; • further, the volume of the compound solution or solvent added to each well is 1-10 μL, preferably 10 μL; • further, after adding the compound solution, the conditions for continuing the culture are 37° C., 5% CO2 incubator; preferably, the culture time is 24-72 h, more preferably 72 h; • further, the method for measuring cell proliferation is MTT, CCK8, CellTiter-Glo; preferably the method is CellTiter-Glo; • further, the cell proliferation is read using a microplate reader, more preferably a BioTek Synergy H1 microplate reader.
(§2) When NCI-H358 or Mia PaCa-2 cells were cultured to the appropriate fusion level, the NCI-H358 or Mia PaCa-2 cells were collected, and the cells were adjusted to the appropriate cell concentration using a complete medium, and the cell suspension was spread in a 96-well plate, 90 μL per well, and placed in a 37° C., 5% CO2 incubator overnight; and compound solutions of different concentrations were prepared using DMSO and culture medium; and a solvent control was set, the compound solution was added to a 96-well plate, 10 μL per well, at 37° C. in a 5% CO2 incubator for 72 hours; CellTiter-Glo solution was added thereto and the mixture was mixed well by shaking, incubated for 10 min in the dark, and read by BioTek Synergy H1 microplate reader.
(§3) The luminescence signal values were used to calculate the inhibition rate, the concentration and the inhibition rate were fitted to a nonlinear regression curve using Graphpad Prism software, then the IC50 value was obtained.

[2] = test system: NCI-H358 cells (KRAS G12C mutant cell line); assay: Inhibition of NCI-H358 cell proliferation (CellTiter-Glo, 72 h); assay type: cell-based, human; conditions: Homo sapiens
From the text: as §1, §2, §3

[3] = target: T1, human KRAS G12C protein (Homo sapiens, UniProt P01116, G12C); assay: Thermal shift: melting temperature of KRAS G12C protein; assay type: binding; conditions: for Tm (° C.): KRAS G12C protein 5.37 μM with compound 10 μM, 1 hour incubation
T1 construct: purchased Beijing SinoBiological Co., Ltd. 12259-H07E2
Protocol: A solution containing […] (pH 7.5), 1 mM DTT, 5×SYPRO Orange and 150 mM NaCl was prepared as the experimental buffer, and a final concentration of 5.37 μM human KRAS G12C protein was added thereto. […] After incubating at room temperature in the dark for 1 hour, the PCR tube was put into the PCR instrument, QuantStudio Software v1.3 was opened, and the melting temperature of KRAS G12C protein in different treatment groups was detected by melt curve function (heating from 25° C. to 95° C., 0.03° C./s). The experimental data file of PCR instrument was imported into thermal shift software, and the melting temperature (Tm) of each treatment group was obtained, and the change value of melting temperature (Δ Tm) was obtained by subtracting the Tm of DMSO solvent control group.

[4] = in vitro; assay type: in vitro ADME; conditions: 0.5 μM
Protocol: Animal or human whole blood was collected, then the blood was put into a test tube containing anticoagulant, centrifuged at 3500 rpm for 10 min, and the upper layer of pale yellow plasma was collected. • 2), 10 μM of tested compound (m/M/V=C)
The compound was weighed, the stock solution was prepared with DMSO and the working solution was prepared with 100 mM phosphate buffer. • 3), 10 μM of positive control (1) Propantheline (Propantheline Mr=449.4 Da)
• 1) 285 μL of plasma and 15 μL of 10 μM compound (tested compound) were added in turn in a 96-well plate, and incubated at 37° C. • 2) 40 μL was taken out at 0, 15, 30, 60, 90, 120 min, respectively, and 160 μL of acetonitrile termination solution containing internal standard was added. • 3) After centrifugation (3500 rpm, 10 min), 50 μL of supernatant was taken out, and then diluted with 50 μL DDH2O and injected to LC-MS/MS.
• Instrument: Shimadzu LC-20 AD • Chromatographic column: phenomenex Gemiu® C18 (50*4.6 mm, 5 μM particle size); • mobile phase: A: acetonitrile, B: 0.1% formic acid solution […], 2.0-2.1 min: 90% A→5% A; flow rate: 0.8 mL/min; running time: 5.0 min; injection volume: 5 μL.
• Instrument: API4000 Liquid Chromatography-Mass Spectrometry, AB, USA; • the ion source was electrospray ionization source (ESI); • the temperature of dry gas (N2) was 500° C.; • electrospray voltage was 5500V; • the detection method was positive ion detection; • the scanning mode was selective response monitoring (MRM). • the scanning time was 0.1 s.

[5] = compound 10 μM, Tm minus Tm of DMSO solvent control

SMILES: C=CC(=O)N1CCN(c2nc(=O)n(-c3c(C)ccnc3C(C)C)c3nc(-c4c(F)cccc4SC)c(F)cc23)[C@@H](C)C1 (single isomer, unassigned) [Embodiment 75-1]
pIC50 [1]: 7.44
pIC50 [2]: 7.60

SMILES: C=CC(=O)N1CCN(c2nc(=O)n(-c3c(C)ccnc3C(C)C)c3nc(-c4c(F)cccc4C(=O)N(C)C)c(F)cc23)[C@@H](C)C1 [Embodiment 73]
Tm (° C.) [3]: 55.5 °C
ΔTm (° C.) [3, 5]: 6.9 °C

SMILES: C=CC(=O)N1[C@H](C)CN(c2nc(=O)n(-c3c(SC)ccnc3C(C)C)c3nc(-c4c(O)cccc4F)c(F)cc23)C[C@@H]1C [Embodiment 115, 4-((3S, 5R)-4-acryloyl-3,5-dimethylpiperazin-1-yl)-6-fluoro-7-(2-fluoro-6-hydroxyphenyl)-1-(2-isopropyl-4-(methylthio)pyridin-3-yl) pyrido [2,3-d] pyrimidin-2 (1H)-one]
Tm (° C.) [3]: 55.2 °C
ΔTm at 10 µM [3, 5]: 6.6 °C

SMILES: C=CC(=O)N1CCN(c2nc(=O)n(-c3c(C)ccnc3C(C)C)c3nc(-c4cccnc4SC)c(F)cc23)[C@@H](C)C1 [Embodiment 136, (S)-4-(4-acryloyl-2-methylpiperazin-1-yl)-6-fluoro-1-(2-isopropyl-4-methylpyridin-3-yl)-7-(2-(methylthio)pyridin-3-yl) pyrido [2,3-d] pyrimidin-2 (1H)-one]
Tm (° C.) [3]: 57.3 °C
ΔTm at 10 µM [3, 5]: 8.7 °C

SMILES: C=CC(=O)N1C[C@H](C)N(c2nc(=O)n(-c3c(SC)ccnc3C(C)C)c3nc(-c4c(N)c(F)cc(Cl)c4F)c(Cl)cc23)C[C@H]1C [Embodiment 196, 4-((2S, 5R)-4-acryloyl-2,5-dimethylpiperazin-1-yl)-7-(2-amino-5-chloro-3,6-difluorophenyl)-6-chloro-1-(2-isopropyl-4-(methylthio)pyridin-3-yl) pyrido [2,3-d] pyrimidin-2 (1H)-one]
pIC50 [1]: 8.28

SMILES: C=CC(=O)N1C[C@H](C)N(c2nc(=O)n(-c3c(SC)ccnc3C(C)C)c3nc(-c4c(N)c(C)cc(F)c4F)c(Cl)cc23)C[C@H]1C [Embodiment 201, 4-((2S, 5R)-4-acryloyl-2,5-dimethylpiperazin-1-yl)-7-(2-amino-5,6-difluoro-3-methylphenyl)-6-chloro-1-(2-isopropyl-4-(methylthio)pyridin-3-yl) pyrido [2,3-d] pyrimidin-2 (1H)-one]
pIC50 [1]: 8.31

SMILES: C=CC(=O)N1CCN(c2nc(=O)n(-c3c(SC)ccnc3C(C)C)c3nc(-c4c(C)cccc4F)c(Cl)cc23)[C@@H](C)C1 [Embodiment 206, 4-((S)-4-acryloyl-2-methylpiperazin-1-yl)-6-chloro-7-(2-fluoro-6-methylphenyl)-1-(2-isopropyl-4-(methylthio)pyridin-3-yl) pyrido [2,3-d] pyrimidin-2 (1H)-one]
pIC50 [1]: 7.85

SMILES: C=CC(=O)N1CCN(c2nc(=O)n(-c3c(SC)ccnc3C(C)C)c3nc(-c4c(F)cccc4Cl)c(Cl)cc23)[C@@H](C)C1 [Embodiment 208, 4-((S)-4-acryloyl-2-methylpiperazin-1-yl)-6-chloro-7-(2-chloro-6-fluorophenyl)-1-(2-isopropyl-4-(methylthio)pyridin-3-yl) pyrido [2,3-d] pyrimidin-2 (1H)-one]
pIC50 [1]: 7.23

SMILES: CC(C)[N+](C)(CCOC(=O)C1c2ccccc2Oc2ccccc21)C(C)C [Propantheline, reference compound]
Residual rate (%) 0 min ([4]; human): 100.00%
Residual rate (%) 15 min ([4]; human): 79.98%
Residual rate (%) 30 min ([4]; human): 50.52%
Residual rate (%) 60 min ([4]; human): 14.65%
Residual rate (%) 120 min ([4]; human): 0.72%
Residual rate (%) 0 min ([4]; mouse): 100.00%
Residual rate (%) 15 min ([4]; mouse): 79.79%
Residual rate (%) 30 min ([4]; mouse): 48.66%
Residual rate (%) 60 min ([4]; mouse): 23.39%
Residual rate (%) 120 min ([4]; mouse): 6.66%

Continued, values first:

pIC50 [1]: 7.26
pIC50 [2]: 7.55
SMILES: C=CC(=O)N1CCN(c2nc(=O)n(-c3c(SC)ccnc3C(C)C)c3nc(-c4c(O)cccc4F)c(F)cc23)[C@@H](C)C1 (single isomer, unassigned) [Embodiment 60-1]

pIC50 [1]: 7.34
pIC50 [2]: 7.60
SMILES: C=CC(=O)N1CCN(c2nc(=O)n(-c3c(S(C)(=O)=O)ccnc3C(C)C)c3nc(-c4c(O)cccc4F)c(F)cc23)[C@@H](C)C1 [Embodiment 133, 4-((S)-4-acryloyl-2-methylpiperazin-1-yl)-6-fluoro-7-(2-fluoro-6-hydroxyphenyl)-1-(2-isopropyl-4-(methylsulfonyl)pyridin-3-yl) pyrido [2,3-d] pyrimidin-2 (1H)-one]

pIC50 [1]: 7.74
SMILES: C=CC(=O)N1C[C@H](C)N(c2nc(=O)n(-c3c(SC)ccnc3C(C)C)c3nc(-c4c(N)c(Cl)cc(Cl)c4F)c(Cl)cc23)C[C@H]1C [Embodiment 193, 4-((2S, 5R)-4-acryloyl-2,5-dimethylpiperazin-1-yl)-7-(2-amino-3,5-dichloro-6-fluorophenyl)-6-chloro-1-(2-isopropyl-4-(methylthio)pyridin-3-yl) pyrido [2,3-d] pyrimidin-2 (1H)-one]

pIC50 [1]: 8.15
SMILES: C=CC(=O)N1CCN(c2nc(=O)n(-c3c(SC)ccnc3C(C)C)c3nc(-c4c(N)c(F)cc(Cl)c4F)c(Cl)cc23)[C@@H](C)C1 [Embodiment 194, 4-((S)-4-acryloyl-2-methylpiperazin-1-yl)-7-(2-amino-5-chloro-3,6-difluorophenyl)-6-chloro-1-(2-isopropyl-4-(methylthio)pyridin-3-yl) pyrido [2,3-d] pyrimidin-2 (1H)-one]

pIC50 [1]: 8.28
SMILES: C=CC(=O)N1CCN(c2nc(=O)n(-c3c(SC)ccnc3C(C)C)c3nc(-c4c(N)c(C)cc(F)c4F)c(Cl)cc23)[C@@H](C)C1 [Embodiment 195, 4-((S)-4-acryloyl-2-methylpiperazin-1-yl)-7-(2-amino-5,6-difluoro-3-methylphenyl)-6-chloro-1-(2-isopropyl-4-(methylthio)pyridin-3-yl) pyrido [2,3-d] pyrimidin-2 (1H)-one]

pIC50 [1]: 8.22
SMILES: C=CC(=O)N1CCN(c2nc(=O)n(-c3c(SC)ccnc3C(C)C)c3nc(-c4c(F)ccc(F)c4N)c(Cl)cc23)[C@@H](C)C1 [Embodiment 198, 4-((S)-4-acryloyl-2-methylpiperazin-1-yl)-7-(2-amino-3,6-difluorophenyl)-6-chloro-1-(2-isopropyl-4-(methylthio)pyridin-3-yl)pyrido[2,3-d]pyrimidin-2(1H)-one]
